Experiment [1] has as its system Lipid bilayer. Nature of the experiment: Binding affinity to POPG:POPC:lysyl-DOPG:7MC-POPE unilamellar lipid vesicle with >30 mol% of lysyl-DOPG at 0.5 uM by FRET assay.
Experiment [2] concerns Lipid bilayer. The experiment in a line: Binding affinity to POPG:POPC:lysyl-DOPG:7MC-POPE unilamellar lipid vesicle with <30 mol% of lysyl-DOPG at 0.5 uM by FRET assay.

Calls of active or inactive are those of the source. No cut-off for these calls is given here.

On to H-ALYKKWKKKLLKSLKRLG-OH, for which, in the experiment on Lipid bilayer [1], the outcome was inactive. The outcome with Lipid bilayer [2] was Active.

Values taken from ChEMBL document CHEMBL1687772, “Lysyl-phosphatidylglycerol attenuates membrane perturbation rather than surface association of the cationic antimicrobial peptide 6W-RP-1 in a model membrane system: implications for daptomycin resistance” (Antimicrob Agents Chemother, 2010).
